Assays:
Test in all cases: Kinase Selectivity Assay
Format in all cases: biochemical
Settings in all cases: read-out: Percent Inhibition at 1 μM
ABL2 (Arg) = target: T1, ABL2 (Arg) (Homo sapiens, UniProt P42684)
T1 construct: purchased Invitrogen, Carlsbad, Calif
Procedure: (§1) Compounds were assayed for inhibitory activity against a panel of different kinase enzymes at a concentration of 1 μM. Where appropriate, full-length enzymes or catalytically active fragments, with N-terminal or C-terminal His- or GST-tags, were used (Invitrogen, Carlsbad, Calif.). Test compounds were initially diluted to 100× test concentration in 100% DMSO. This 100× concentration was then diluted to a 4× working concentration in Kinase Buffer (50 mM HEPES pH 7.5, 0.01% Brij-35, 10 mM MgCl2, 1 mM EGTA) and 2.5 μL was then added to a low volume NBS, 384-well plate (Corning, Corning, N.Y.). Five μL of a 2× peptide/kinase mixture (Invitrogen, Carlsbad, Calif.), as appropriate (listed in Table 3), was then added and the reaction was then initiated by addition of 2.5 μL of a 4× working concentration of ATP in Kinase Buffer.

AKT1 (PKB alpha) = target: T2, AKT1 (PKB alpha) (Homo sapiens, UniProt P31749)
T2 construct: purchased Invitrogen, Carlsbad, Calif
T2 sequence (P31749 whole entry): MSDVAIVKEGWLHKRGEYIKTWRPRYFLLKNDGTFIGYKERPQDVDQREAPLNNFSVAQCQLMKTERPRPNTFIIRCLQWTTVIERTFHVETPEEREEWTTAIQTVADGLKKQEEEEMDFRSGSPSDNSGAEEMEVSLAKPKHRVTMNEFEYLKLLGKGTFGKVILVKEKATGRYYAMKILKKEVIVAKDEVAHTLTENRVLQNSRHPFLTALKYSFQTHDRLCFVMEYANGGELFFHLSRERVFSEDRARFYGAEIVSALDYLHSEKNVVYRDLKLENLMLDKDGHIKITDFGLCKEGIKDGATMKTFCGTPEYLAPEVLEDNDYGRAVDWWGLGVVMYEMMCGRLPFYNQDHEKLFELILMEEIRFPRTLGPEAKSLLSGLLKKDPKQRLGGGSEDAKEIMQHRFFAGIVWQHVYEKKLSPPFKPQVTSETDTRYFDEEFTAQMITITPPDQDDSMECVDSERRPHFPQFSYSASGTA
Procedure: as §1

AURKB (Aurora B) = target: T3, AURKB (Aurora B) (Homo sapiens, UniProt Q96GD4)
T3 construct: purchased Invitrogen, Carlsbad, Calif
T3 sequence (Q96GD4 whole entry): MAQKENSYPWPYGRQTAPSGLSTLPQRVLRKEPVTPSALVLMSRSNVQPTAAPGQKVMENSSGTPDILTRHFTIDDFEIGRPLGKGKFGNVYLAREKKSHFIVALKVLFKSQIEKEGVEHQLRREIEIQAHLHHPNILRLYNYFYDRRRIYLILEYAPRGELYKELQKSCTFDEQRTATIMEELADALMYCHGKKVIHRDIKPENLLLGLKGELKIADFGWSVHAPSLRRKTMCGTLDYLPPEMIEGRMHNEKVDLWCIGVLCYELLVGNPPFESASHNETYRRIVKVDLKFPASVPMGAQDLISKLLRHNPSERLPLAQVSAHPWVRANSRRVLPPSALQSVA
Procedure: as §1

BLK = target: T4, BLK (Homo sapiens, UniProt P51451)
T4 construct: purchased Invitrogen, Carlsbad, Calif
T4 sequence (P51451 whole entry): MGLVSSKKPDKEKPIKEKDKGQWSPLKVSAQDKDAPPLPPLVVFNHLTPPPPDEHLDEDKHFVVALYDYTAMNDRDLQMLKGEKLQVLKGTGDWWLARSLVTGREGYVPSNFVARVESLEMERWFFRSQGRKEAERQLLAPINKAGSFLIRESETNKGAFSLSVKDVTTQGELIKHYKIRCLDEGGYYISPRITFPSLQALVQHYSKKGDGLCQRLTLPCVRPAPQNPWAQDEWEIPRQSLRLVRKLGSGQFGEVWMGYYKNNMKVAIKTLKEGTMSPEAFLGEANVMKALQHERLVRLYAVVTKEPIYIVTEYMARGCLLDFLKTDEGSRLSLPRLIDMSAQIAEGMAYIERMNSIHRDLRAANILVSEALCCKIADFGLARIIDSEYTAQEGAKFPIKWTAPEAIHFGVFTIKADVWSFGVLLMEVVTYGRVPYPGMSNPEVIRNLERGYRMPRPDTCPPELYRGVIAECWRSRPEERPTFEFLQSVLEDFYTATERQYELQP
Procedure: as §1

BMX = target: T5, BMX (Homo sapiens, UniProt P51813)
T5 construct: purchased Invitrogen, Carlsbad, Calif
Procedure: as §1

BTK = target: T6, BTK (Homo sapiens, UniProt Q06187)
T6 construct: purchased Invitrogen, Carlsbad, Calif
T6 sequence (Q06187 whole entry): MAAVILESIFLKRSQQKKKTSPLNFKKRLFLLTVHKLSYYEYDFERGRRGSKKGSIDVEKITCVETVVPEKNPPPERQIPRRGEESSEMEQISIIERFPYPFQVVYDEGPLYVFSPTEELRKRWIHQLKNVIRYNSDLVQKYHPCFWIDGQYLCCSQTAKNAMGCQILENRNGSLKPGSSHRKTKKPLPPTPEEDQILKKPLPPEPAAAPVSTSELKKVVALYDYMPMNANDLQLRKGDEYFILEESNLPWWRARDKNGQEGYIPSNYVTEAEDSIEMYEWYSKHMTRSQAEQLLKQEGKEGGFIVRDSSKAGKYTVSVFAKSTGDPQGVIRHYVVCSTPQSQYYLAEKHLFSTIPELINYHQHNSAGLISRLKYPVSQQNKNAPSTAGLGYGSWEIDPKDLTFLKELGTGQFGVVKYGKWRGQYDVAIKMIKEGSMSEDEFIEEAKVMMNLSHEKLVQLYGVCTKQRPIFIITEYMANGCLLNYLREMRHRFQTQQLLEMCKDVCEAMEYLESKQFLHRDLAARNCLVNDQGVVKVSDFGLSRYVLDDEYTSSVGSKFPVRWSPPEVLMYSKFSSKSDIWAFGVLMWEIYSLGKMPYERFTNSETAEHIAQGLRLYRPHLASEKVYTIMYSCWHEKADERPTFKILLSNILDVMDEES
Procedure: as §1

CDK2/cyclin A = target: T7, CDK2/cyclin A (Homo sapiens, UniProt P24941)
T7 construct: purchased Invitrogen, Carlsbad, Calif
Procedure: as §1

CSF1R (FMS) = target: T8, CSF1R (FMS) (Homo sapiens, UniProt P07333)
T8 construct: purchased Invitrogen, Carlsbad, Calif
Procedure: as §1

DAPK3 (ZIPK) = target: T9, DAPK3 (ZIPK) (Homo sapiens, UniProt O43293)
T9 construct: purchased Invitrogen, Carlsbad, Calif
Procedure: as §1

EPHA1 = target: T10, EPHA1 (Homo sapiens, UniProt P21709)
T10 construct: purchased Invitrogen, Carlsbad, Calif
Procedure: as §1

EPHB1 = target: T11, EPHB1 (Homo sapiens, UniProt P54762)
T11 construct: purchased Invitrogen, Carlsbad, Calif
Procedure: as §1

FGFR2 = target: T12, FGFR2 (Homo sapiens, UniProt P21802)
T12 construct: full-length enzymes or catalytically active fragments; purchased Invitrogen
Procedure: as §1

FLT1 (VEGFR1) = target: T13, FLT1 (VEGFR1) (Homo sapiens, UniProt P17948)
T13 construct: full-length enzymes or catalytically active fragments; purchased Invitrogen
T13 sequence (P17948 27-1338): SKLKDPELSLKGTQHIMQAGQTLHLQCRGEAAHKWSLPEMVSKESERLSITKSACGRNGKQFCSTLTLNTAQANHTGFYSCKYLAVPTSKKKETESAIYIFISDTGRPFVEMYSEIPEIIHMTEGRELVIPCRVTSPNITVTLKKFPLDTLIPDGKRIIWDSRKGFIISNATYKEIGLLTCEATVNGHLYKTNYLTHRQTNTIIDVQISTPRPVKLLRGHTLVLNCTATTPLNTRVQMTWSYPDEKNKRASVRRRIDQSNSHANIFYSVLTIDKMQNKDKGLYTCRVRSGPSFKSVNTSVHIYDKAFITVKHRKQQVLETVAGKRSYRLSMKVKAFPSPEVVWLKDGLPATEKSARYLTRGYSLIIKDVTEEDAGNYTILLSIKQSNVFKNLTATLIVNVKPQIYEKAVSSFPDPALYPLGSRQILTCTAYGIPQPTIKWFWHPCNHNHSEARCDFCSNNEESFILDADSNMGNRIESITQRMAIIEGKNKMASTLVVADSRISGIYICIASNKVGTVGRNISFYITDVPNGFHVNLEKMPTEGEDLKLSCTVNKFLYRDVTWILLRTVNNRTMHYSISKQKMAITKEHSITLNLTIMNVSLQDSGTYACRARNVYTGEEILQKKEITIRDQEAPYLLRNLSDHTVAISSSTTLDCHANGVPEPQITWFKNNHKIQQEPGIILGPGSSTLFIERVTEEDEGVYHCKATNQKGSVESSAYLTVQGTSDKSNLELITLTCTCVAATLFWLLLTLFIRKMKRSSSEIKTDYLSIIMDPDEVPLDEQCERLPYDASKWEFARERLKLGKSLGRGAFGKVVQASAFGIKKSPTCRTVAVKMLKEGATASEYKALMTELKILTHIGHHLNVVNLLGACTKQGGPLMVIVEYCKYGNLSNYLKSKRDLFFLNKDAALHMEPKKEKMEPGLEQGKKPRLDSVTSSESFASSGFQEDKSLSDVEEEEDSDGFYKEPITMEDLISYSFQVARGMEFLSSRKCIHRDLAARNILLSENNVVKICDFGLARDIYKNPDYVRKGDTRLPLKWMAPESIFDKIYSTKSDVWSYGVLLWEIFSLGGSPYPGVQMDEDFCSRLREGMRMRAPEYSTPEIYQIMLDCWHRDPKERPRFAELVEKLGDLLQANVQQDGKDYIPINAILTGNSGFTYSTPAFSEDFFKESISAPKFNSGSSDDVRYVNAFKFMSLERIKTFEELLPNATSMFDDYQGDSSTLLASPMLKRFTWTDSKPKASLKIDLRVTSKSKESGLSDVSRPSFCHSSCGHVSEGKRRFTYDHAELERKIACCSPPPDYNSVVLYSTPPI
Procedure: as §1

FLT3 = target: T14, FLT3 (Homo sapiens, UniProt P36888)
T14 construct: full-length enzymes or catalytically active fragments; purchased Invitrogen
Procedure: as §1

FLT3 D835Y = target: T15, FLT3 D835Y (Homo sapiens, UniProt P36888, D835Y)
T15 construct: full-length enzymes or catalytically active fragments; purchased Invitrogen
Procedure: as §1

FLT4 (VEGFR3) = target: T16, FLT4 (VEGFR3) (Homo sapiens, UniProt P35916)
T16 construct: full-length enzymes or catalytically active fragments; purchased Invitrogen
Procedure: as §1

FYN = target: T17, FYN (Homo sapiens, UniProt P06241)
T17 construct: full-length enzymes or catalytically active fragments; purchased Invitrogen
Procedure: as §1

GSK3A (GSK3 alpha) = target: T18, GSK3A (GSK3 alpha) (Homo sapiens, UniProt P49840)
T18 construct: full-length enzymes or catalytically active fragments; purchased Invitrogen
Procedure: as §1

GSK3B (GSK3 beta) = target: T19, GSK3B (GSK3 beta) (Homo sapiens, UniProt P49841)
T19 construct: full-length enzymes or catalytically active fragments; purchased Invitrogen
Procedure: as §1

IRAK4 = target: T20, IRAK4 (Homo sapiens, UniProt Q9NWZ3)
T20 construct: full-length enzymes or catalytically active fragments; purchased Invitrogen
Procedure: as §1

JAK2 = target: T21, JAK2 (Homo sapiens, UniProt O60674)
T21 construct: full-length enzymes or catalytically active fragments; purchased Invitrogen
Procedure: as §1

KDR (VEGFR2) = target: T22, KDR (VEGFR2) (Homo sapiens, UniProt P35968)
T22 construct: full-length enzymes or catalytically active fragments; purchased Invitrogen
Procedure: as §1

KIT = target: T23, KIT (Homo sapiens, UniProt P10721)
T23 construct: full-length enzymes or catalytically active fragments; purchased Invitrogen
T23 sequence (P10721 26-976): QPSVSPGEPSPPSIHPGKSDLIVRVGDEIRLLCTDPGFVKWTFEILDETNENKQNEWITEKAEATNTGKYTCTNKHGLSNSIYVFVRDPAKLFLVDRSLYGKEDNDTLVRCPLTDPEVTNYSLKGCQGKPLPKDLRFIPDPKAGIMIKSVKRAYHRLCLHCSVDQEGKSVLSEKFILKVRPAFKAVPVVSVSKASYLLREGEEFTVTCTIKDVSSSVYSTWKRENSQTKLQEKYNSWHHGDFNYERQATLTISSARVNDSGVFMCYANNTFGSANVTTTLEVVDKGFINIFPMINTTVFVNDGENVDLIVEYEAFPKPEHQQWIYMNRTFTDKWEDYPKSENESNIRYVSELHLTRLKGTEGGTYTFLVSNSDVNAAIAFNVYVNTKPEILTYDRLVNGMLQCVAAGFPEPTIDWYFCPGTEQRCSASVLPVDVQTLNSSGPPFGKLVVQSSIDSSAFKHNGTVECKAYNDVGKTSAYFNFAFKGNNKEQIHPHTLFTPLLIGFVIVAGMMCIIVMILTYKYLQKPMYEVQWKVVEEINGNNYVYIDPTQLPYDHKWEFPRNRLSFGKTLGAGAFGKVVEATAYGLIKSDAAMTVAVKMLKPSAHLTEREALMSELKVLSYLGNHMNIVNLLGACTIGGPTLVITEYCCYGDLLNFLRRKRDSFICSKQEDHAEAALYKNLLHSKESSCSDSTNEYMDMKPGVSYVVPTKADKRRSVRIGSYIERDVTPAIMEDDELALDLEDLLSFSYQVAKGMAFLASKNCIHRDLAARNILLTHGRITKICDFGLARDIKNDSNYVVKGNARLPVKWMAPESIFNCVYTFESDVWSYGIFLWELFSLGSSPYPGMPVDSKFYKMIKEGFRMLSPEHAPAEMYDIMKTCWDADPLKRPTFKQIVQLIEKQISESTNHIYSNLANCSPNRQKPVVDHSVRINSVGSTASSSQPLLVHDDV
Procedure: as §1

KIT T670I = target: T24, KIT T670I (Homo sapiens, UniProt P10721, T670I)
T24 construct: full-length enzymes or catalytically active fragments; purchased Invitrogen
T24 sequence (P10721 26-976 T670I): as the sequence (P10721 26-976) above, with T645I counted along it
Procedure: as §1

LYN A = target: T25, LYN A (Homo sapiens, UniProt P07948)
T25 construct: full-length enzymes or catalytically active fragments; purchased Invitrogen
Procedure: as §1

MAP2K1 (MEK1) = target: T26, MAP2K1 (MEK1) (Homo sapiens, UniProt Q02750)
T26 construct: full-length enzymes or catalytically active fragments; purchased Invitrogen
Procedure: as §1

NTRK1 (TRKA) = target: T27, NTRK1 (TRKA) (Homo sapiens, UniProt P04629)
T27 construct: full-length enzymes or catalytically active fragments; purchased Invitrogen
Procedure: as §1

PDGFRA (PDGFR alpha) = target: T28, PDGFRA (PDGFR alpha) (Homo sapiens, UniProt P16234)
T28 construct: full-length enzymes or catalytically active fragments; purchased Invitrogen
Procedure: as §1

PDGFRA D842V = target: T29, PDGFRA D842V (Homo sapiens, UniProt P16234, D842V)
T29 construct: full-length enzymes or catalytically active fragments; purchased Invitrogen
Procedure: as §1

PDGFRA T674I = target: T30, PDGFRA T674I (Homo sapiens, UniProt P16234, T674I)
T30 construct: full-length enzymes or catalytically active fragments; purchased Invitrogen
Procedure: as §1

RET = target: T31, RET (Homo sapiens, UniProt P07949)
T31 construct: full-length enzymes or catalytically active fragments; purchased Invitrogen
Procedure: as §1

ROS1 = target: T32, ROS1 (Homo sapiens, UniProt P08922)
T32 construct: full-length enzymes or catalytically active fragments; purchased Invitrogen
Procedure: as §1

STK6 (Aurora A) = target: T33, STK6 (Aurora A) (Homo sapiens, UniProt O14965)
T33 construct: full-length enzymes or catalytically active fragments; purchased Invitrogen
Procedure: as §1

TBK1 = target: T34, TBK1 (Homo sapiens, UniProt Q9UHD2)
T34 construct: purchased Invitrogen, Carlsbad, Calif
T34 sequence (Q9UHD2 whole entry): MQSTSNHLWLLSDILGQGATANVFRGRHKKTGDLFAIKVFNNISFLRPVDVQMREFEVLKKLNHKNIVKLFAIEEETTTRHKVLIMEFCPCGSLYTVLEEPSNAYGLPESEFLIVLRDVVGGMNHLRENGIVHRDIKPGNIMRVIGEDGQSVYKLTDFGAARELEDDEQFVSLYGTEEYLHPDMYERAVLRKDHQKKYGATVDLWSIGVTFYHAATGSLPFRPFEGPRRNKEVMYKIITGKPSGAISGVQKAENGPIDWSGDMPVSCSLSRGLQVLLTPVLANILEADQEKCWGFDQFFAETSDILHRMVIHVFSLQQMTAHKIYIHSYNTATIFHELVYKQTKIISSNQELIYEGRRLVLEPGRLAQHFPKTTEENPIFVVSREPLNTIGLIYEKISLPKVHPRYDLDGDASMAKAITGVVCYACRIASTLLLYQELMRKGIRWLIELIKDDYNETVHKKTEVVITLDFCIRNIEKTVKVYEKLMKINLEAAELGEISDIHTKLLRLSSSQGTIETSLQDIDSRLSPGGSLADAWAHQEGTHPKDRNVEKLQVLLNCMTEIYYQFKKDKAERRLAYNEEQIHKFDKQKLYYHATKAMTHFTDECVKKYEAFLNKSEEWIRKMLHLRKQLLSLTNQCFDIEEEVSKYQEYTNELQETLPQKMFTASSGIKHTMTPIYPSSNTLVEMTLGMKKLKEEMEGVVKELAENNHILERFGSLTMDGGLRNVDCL
Procedure: as §1

YES1 = target: T35, YES1 (Homo sapiens, UniProt P07947)
T35 construct: purchased Invitrogen, Carlsbad, Calif
Procedure: as §1
Note: ATP at apparent Km or 100 µM.

Structure (SMILES)	inhibition at 1 µM (ABL2 (Arg))	inhibition at 1 µM (AKT1 (PKB alpha))	inhibition at 1 µM (AURKB (Aurora B))	inhibition at 1 µM (BLK)	inhibition at 1 µM (BMX)	inhibition at 1 µM (BTK)	inhibition at 1 µM (CDK2/cyclin A)	inhibition at 1 µM (CSF1R (FMS))	inhibition at 1 µM (DAPK3 (ZIPK))	inhibition at 1 µM (EPHA1)	inhibition at 1 µM (EPHB1)	inhibition at 1 µM (FGFR2)	inhibition at 1 µM (FLT1 (VEGFR1))	inhibition at 1 µM (FLT3)	inhibition at 1 µM (FLT3 D835Y)	inhibition at 1 µM (FLT4 (VEGFR3))	inhibition at 1 µM (FYN)	inhibition at 1 µM (GSK3A (GSK3 alpha))	inhibition at 1 µM (GSK3B (GSK3 beta))	inhibition at 1 µM (IRAK4)	also measured
Cc1cc(Nc2nc(/C=C/c3ccccc3)nc(N3CCN(C)CC3)c2N)[nH]n1 [Example 10, 6-(4-methylpiperazin-1-yl)-N-(3-methyl-1H-pyrazol-5-yl)-2-[(E)-2-phenylvinyl]pyrimidin-4,5-diamine]	32%	9%	37%	67%	19%	28%	8%	80%	93%	52%	32%	53%	25%	93%	80%	87%	50%	38%	26%	14%	inhibition at 1 µM (JAK2): 61%; inhibition at 1 µM (KDR (VEGFR2)): 88%; inhibition at 1 µM (KIT): 39%; inhibition at 1 µM (KIT T670I): 44%; inhibition at 1 µM (LYN A): 63%; inhibition at 1 µM (MAP2K1 (MEK1)): 23%; inhibition at 1 µM (NTRK1 (TRKA)): 92%; inhibition at 1 µM (PDGFRA (PDGFR alpha)): 58%; inhibition at 1 µM (PDGFRA D842V): 9%; inhibition at 1 µM (PDGFRA T674I): 65%; inhibition at 1 µM (RET): 95%; inhibition at 1 µM (ROS1): 54%; inhibition at 1 µM (STK6 (Aurora A)): 83%; inhibition at 1 µM (TBK1): 73%; inhibition at 1 µM (YES1): 80%
Cc1cc(Nc2cc(N3CCN(C)CC3)nc(/C=C/c3ccccc3)n2)n[nH]1 [Example 31, 6-(4-methylpiperazin-1-yl)-N-(3-methyl-1H-pyrazol-5-yl)-2-[(E)-2-phenylvinyl]pyrimidin-4-amine]	74%	5%	75%	90%	61%	63%	8%	97%	68%	77%	61%	86%	53%	98%	98%	97%	89%	36%	28%	63%	inhibition at 1 µM (JAK2): 91%; inhibition at 1 µM (KDR (VEGFR2)): 96%; inhibition at 1 µM (KIT): 75%; inhibition at 1 µM (KIT T670I): 79%; inhibition at 1 µM (LYN A): 84%; inhibition at 1 µM (MAP2K1 (MEK1)): 3%; inhibition at 1 µM (NTRK1 (TRKA)): 96%; inhibition at 1 µM (PDGFRA (PDGFR alpha)): 83%; inhibition at 1 µM (PDGFRA D842V): 24%; inhibition at 1 µM (PDGFRA T674I): 88%; inhibition at 1 µM (RET): 98%; inhibition at 1 µM (ROS1): 65%; inhibition at 1 µM (STK6 (Aurora A)): 96%; inhibition at 1 µM (TBK1): 80%; inhibition at 1 µM (YES1): 88%

— US7563787B2, “Substituted pyrazole compounds” (Miikana Therapeutics, Inc., priority 2005, dated 2009)
